Results on 11 compounds are retold here after patent US9464076B2, “Benzothiophene derivative” (Daiichi Sankyo Company, Limited, priority 2013, dated 2016).

Broadly, the % inhibition is the relative decrease from the control value, in per cent. As usually defined, the ED50 is the midpoint of the dose-response relation. By IC50 is commonly meant the concentration that inhibits the measured activity by half. One may read the inhibition in vivo as the change of the read-out against control, counted positive when it falls.

Test [1] has as its system Male C57BL/6 Cr mice. Put plainly: Test on suppression of phencyclidine-induced hyperlocomotion in mice. The class given is in vivo, mouse. The note with it: locomotor activity, test compound 10 mg/kg oral, phencyclidine 5 mg/kg s.c. approx. 1 hour later, measured for 1 hour; for inhibition in vivo at 10 mg/kg: Mus musculus, po, 1 h. As to the method: Male C57BL/6 Cr mice (Japan SLC, Inc.) (8 weeks old) were used in the experiment. A test compound was suspended at 1 mg/mL in a 0.5% hydroxypropylcellulose solution to prepare a suspension for administration. The suspension of the test compound or a solvent (0.5% hydroxypropylcellulose solution) was orally administered at a dose of 10 mL/kg to each mouse. After the administration, the mouse was immediately placed in a locomotor activity measurement apparatus (Muromachi Kikai Co., Ltd., locomotor activity measurement system SUPERMEX). Approximately 1 hour later, phencyclidine (5 mg/10 mL/kg) or a solvent (10 mL/kg saline) was subcutaneously administered to the mouse. The locomotor activity was measured from immediately after the subcutaneous administration to 1 hour later.
Percent inhibition exceeding 100 means that when the activity of the phencyclidine administration control group was defined as 100, the activity of the group given a test compound was lower than that of the solvent administration control group.

Test [2] deals with Male C57BL/6 Cr mice. The description is as above. The class given is in vivo. To be noted: Mus musculus, oral, calculated by the linear regression method.
The target in test [3] is PDE10A (H-PDE10A2, Human Phosphodiesterase 10A2) (Homo sapiens (Human), UniProt Q9Y233). Put plainly: Measurement of PDE10A inhibitory activity-1 (3H-cAMP, recombinant enzyme). It counts as biochemical. To be noted: H-PDE10A2, 64 nM cAMP, 25° C., 2 hours. The protocol:
To a solution containing 20 mM Tris-HCl (pH 7.5), 1 mM MgCl2, 100 μM EDTA, 330 μg/ml bovine serum albumin, 50 kU/ml 5′-nucleotidase, 0.1 μCi ^3H-cAMP (64 nM cAMP), and PDE10A (H-PDE10A2, Human Phosphodiesterase 10A2, Scottish Biomedical), a test compound was added, and the mixture was reacted at 25° C. for 2 hours. To the reaction solution, QAE-Sephadex (17-0190-01, GE Healthcare Japan Corp.) suspended in 10 mM HEPES-Na (pH 7.0) (hereinafter, also referred to as a “QAE-Sephadex suspension”) was added, and the mixture was shaken for 1 minute and left standing for 5 minutes to obtain a supernatant. To the supernatant, a QAE-Sephadex suspension was further added, and the mixture was shaken for 1 minute and left standing for 5 minutes. Then, the obtained supernatant was transferred to LumaPlate (PerkinElmer, Inc.) and assayed using a radiation counter (TopCount NXT, PerkinElmer, Inc.).
The value of the sample reacted without the addition of both a test compound and PDE10A was defined as 0%, and the value of the sample reacted in the presence of PDE10A without the addition of a test compound was defined as 100%.

The target in test [4] is PDE10A (Homo sapiens (Human), UniProt Q9Y233). Put plainly: Measurement of PDE10A inhibitory activity-2 (PDE10A fraction prepared from MOLT-4 cells). The class given is biochemical. To be noted: PDE10A fraction from MOLT-4 cells (peak around 250 mM NaCl). A digest of the protocol:
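Enzyme source was a PDE10A-containing fraction from MOLT-4 cell soluble extract, resolved by HiTrap Q anion exchange with a 0–0.8 M NaCl gradient and selected by cAMP-hydrolysing activity. IC50 determined with this fraction by the same procedure as the preceding PDE10A assay.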

Structures can show the parent of a compound that is named as a salt.

PDE10A (H-PDE10A2, Human Phosphodiesterase 10A2), sequence (Q9Y233 267-1055): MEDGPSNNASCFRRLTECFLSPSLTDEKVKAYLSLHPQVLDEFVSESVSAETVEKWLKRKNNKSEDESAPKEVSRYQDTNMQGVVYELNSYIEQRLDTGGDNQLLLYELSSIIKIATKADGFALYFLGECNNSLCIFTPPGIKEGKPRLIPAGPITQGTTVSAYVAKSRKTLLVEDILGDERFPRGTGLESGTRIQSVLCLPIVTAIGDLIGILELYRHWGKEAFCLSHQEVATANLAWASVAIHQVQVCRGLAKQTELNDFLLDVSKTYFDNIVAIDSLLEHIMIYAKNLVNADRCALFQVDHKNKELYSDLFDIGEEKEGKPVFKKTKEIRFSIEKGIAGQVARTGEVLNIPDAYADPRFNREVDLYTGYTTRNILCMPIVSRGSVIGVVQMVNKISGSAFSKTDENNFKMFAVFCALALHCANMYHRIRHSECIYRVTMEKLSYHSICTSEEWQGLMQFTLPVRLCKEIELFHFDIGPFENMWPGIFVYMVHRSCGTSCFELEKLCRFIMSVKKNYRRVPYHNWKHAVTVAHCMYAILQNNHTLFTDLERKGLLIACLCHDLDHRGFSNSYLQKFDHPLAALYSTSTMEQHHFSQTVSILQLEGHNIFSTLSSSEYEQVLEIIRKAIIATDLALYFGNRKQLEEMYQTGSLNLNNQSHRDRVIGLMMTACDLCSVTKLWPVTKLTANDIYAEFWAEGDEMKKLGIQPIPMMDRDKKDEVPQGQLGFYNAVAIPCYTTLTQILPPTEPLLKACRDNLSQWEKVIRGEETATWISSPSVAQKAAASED
PDE10A, sequence (Q9Y233 whole entry): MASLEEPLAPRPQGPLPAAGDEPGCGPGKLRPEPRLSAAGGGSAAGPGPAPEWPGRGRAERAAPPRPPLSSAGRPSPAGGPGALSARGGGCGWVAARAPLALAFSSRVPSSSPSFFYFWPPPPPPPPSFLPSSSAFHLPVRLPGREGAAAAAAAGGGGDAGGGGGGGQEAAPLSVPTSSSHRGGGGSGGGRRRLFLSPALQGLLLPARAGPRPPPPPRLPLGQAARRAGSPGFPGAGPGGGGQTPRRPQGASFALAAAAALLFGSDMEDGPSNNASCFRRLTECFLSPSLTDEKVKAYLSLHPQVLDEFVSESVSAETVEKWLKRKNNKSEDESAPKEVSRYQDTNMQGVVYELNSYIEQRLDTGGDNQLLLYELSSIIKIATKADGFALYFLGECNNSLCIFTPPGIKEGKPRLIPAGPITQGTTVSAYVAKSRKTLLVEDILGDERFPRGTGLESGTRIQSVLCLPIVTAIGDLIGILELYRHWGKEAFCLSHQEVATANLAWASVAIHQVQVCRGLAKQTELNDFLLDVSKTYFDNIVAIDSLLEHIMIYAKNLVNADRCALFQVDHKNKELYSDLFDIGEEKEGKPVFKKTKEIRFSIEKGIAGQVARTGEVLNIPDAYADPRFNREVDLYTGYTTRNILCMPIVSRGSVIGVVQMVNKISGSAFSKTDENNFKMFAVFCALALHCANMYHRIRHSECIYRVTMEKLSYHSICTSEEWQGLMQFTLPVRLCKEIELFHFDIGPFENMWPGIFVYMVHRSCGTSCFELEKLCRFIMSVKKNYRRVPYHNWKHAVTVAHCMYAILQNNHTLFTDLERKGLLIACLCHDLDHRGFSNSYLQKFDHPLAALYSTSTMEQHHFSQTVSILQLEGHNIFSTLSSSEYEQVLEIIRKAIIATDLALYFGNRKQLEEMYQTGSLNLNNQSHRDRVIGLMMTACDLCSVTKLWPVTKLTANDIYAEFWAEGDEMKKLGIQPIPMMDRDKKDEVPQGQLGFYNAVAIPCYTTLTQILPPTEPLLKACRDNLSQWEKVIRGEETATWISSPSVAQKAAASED

`COCc1ccc(C(C)=O)c2sc(C(=O)Nc3ccc4c(CO)cccc4n3)c(C)c12.Cc1ccc(S(=O)(=O)O)cc1` [Example 81, 7-Acetyl-N-(5-(hydroxymethyl)quinolin-2-yl)-4-(methoxymethyl)-3-methylbenzo[b]thiophene-2-carboxamide p-toluenesulfonate]: in test [1], the “% inhibition” value is 122%. Moreover, the median effective dose (ED50) in test [2] was 3.3 mg/kg.
With `COCc1ccc(C(C)=O)c2sc(C(=O)Nc3ccc4c(CS(C)(=O)=O)cccc4n3)c(C)c12` [Example 110, 7-Acetyl-4-(methoxymethyl)-3-methyl-N-(5-((methylsulfonyl)methyl)quinolin-2-yl)benzo[b]thiophene-2-carboxamide hydrochloride], the IC50 is 1.4 nM in test [3] (hydrochloride) and 0.23 nM in test [4]. In addition, in test [1], the inhibition in vivo at 10 mg/kg is 76%.
As for `Br.COCc1ccc(C(C)=O)c2sc(C(=O)Nc3ccc4c(CS(C)(=O)=O)cccc4n3)c(C)c12` [Example 112, 7-Acetyl-4-(methoxymethyl)-3-methyl-N-(5-((methylsulfonyl)methyl)quinolin-2-yl)benzo[b]thiophene-2-carboxamide hydrobromide], the half-maximal inhibitory concentration (IC50) in test [3] (hydrobromide) was 0.84 nM. Also, the “% inhibition” value in test [1] was found to be 57%.
With `COCc1ccc(C(C)=O)c2sc(C(=O)Nc3ccc4c(C(=O)N5CC(OC)C5)cccc4n3)c(C)c12` [Example 102, 7-Acetyl-N-(5-((3-methoxyazetidin-1-yl)carbonyl)quinolin-2-yl)-4-(methoxymethyl)-3-methylbenzo[b]thiophene-2-carboxamide], the IC50 in test [3] was 0.7 nM; in test [4], 0.3 nM. Moreover, in test [1], the “% inhibition” value is 120%.
`CC(=O)c1ccc(C(C)=O)c2c(C)c(C(=O)Nc3cc(C(C)(C)O)c4ccccc4n3)sc12` [Example 6, 4,7-Diacetyl-N-(4-(2-hydroxypropan-2-yl)quinolin-2-yl)-3-methylbenzo[b]thiophene-2-carboxamide methanesulfonate]: the IC50 in test [3] (methanesulfonate) was determined as 5.1 nM.
On to `COCc1ccc(C(C)=O)c2sc(C(=O)Nc3ccc4c(CS(C)(=O)=O)cccc4n3)c(C)c12` [Example 109, 7-Acetyl-4-(methoxymethyl)-3-methyl-N-(5-((methylsulfonyl)methyl)quinolin-2-yl)benzo[b]thiophene-2-carboxamide], for which, in test [3], the half-maximal inhibitory concentration (IC50) was determined as 0.61 nM.
As to `CC(=O)c1ccc(C(C)=O)c2c(C)c(C(=O)Nc3cc(C(C)(C)O)c4ccccc4n3)sc12` [Example 4, 4,7-Diacetyl-N-(4-(2-hydroxypropan-2-yl)quinolin-2-yl)-3-methylbenzo[b]thiophene-2-carboxamide hydrobromide], the IC50 in test [3] (hydrobromide) worked out at 5.8 nM.
Regarding `COCc1ccc(C(C)=O)c2sc(C(=O)Nc3cc(CN4CC[C@@H](O)C4)c4ccccc4n3)c(C)c12` [Example 40, (R)-7-Acetyl-N-(4-((3-hydroxypyrrolidin-1-yl)methyl)quinolin-2-yl)-4-(methoxymethyl)-3-methylbenzo[b]thiophene-2-carboxamide hydrochloride], the IC50 in test [3] (hydrochloride) amounted to 0.65 nM.
Still for that read-out and setting: the figure for `COCc1ccc(C(C)=O)c2sc(C(=O)Nc3ccc4c(C(=O)N5CC(OC)C5)cccc4n3)c(C)c12` [Example 103, 7-Acetyl-N-(5-((3-methoxyazetidin-1-yl)carbonyl)quinolin-2-yl)-4-(methoxymethyl)-3-methylbenzo[b]thiophene-2-carboxamide hydrochloride] is 0.31 nM.
As to `COCc1ccc(C(C)=O)c2sc(C(=O)Nc3ccc4c(C(=O)N5CC(OC)C5)cccc4n3)c(C)c12` [Example 104, 7-Acetyl-N-(5-((3-methoxyazetidin-1-yl)carbonyl)quinolin-2-yl)-4-(methoxymethyl)-3-methylbenzo[b]thiophene-2-carboxamide benzenesulfonate], the 50% inhibitory concentration (IC50) in test [3] (benzenesulfonate) amounted to 2.2 nM.
For the compound `COCc1ccc(C(C)=O)c2sc(C(=O)Nc3ccc4c(CN5CCOCC5)cccc4n3)c(C)c12.Cl` [Example 61, 7-Acetyl-4-(methoxymethyl)-3-methyl-N-(5-(morpholinomethyl)quinolin-2-yl)benzo[b]thiophene-2-carboxamide hydrochloride], the inhibition in vivo at 10 mg/kg in test [1] was determined as 122%. In addition, the ED50 in test [2] was 5.7 mg/kg.
